# Reference: patent US20250171438A1 (Agios Pharmaceuticals, Inc., priority 2022, published 2025)
# Molecular target: T1, human PAH with the R408W mutation (Homo sapiens, UniProt P00439, R408W)
# T1 construct: expressed in transfected cells
# T1 sequence (P00439 1-452 R408W): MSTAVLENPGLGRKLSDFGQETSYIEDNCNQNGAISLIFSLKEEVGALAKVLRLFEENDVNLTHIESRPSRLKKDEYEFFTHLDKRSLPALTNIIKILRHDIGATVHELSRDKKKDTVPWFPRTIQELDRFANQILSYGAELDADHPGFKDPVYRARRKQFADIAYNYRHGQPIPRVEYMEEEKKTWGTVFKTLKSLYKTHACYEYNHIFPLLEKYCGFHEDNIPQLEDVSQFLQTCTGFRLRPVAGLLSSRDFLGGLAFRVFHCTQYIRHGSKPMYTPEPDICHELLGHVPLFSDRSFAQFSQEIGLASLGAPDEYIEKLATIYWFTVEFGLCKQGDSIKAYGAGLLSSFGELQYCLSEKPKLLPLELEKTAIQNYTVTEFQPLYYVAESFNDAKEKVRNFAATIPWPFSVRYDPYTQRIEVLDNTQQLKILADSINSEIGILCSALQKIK
# Experiment: Cell Based Phenylalanine Flux Assay
# Settings: A375 cells expressing human R408W PAH; 24 hrs compound incubation; 13C-Tyrosine by LC-MS; average where tested multiple times; read-out: AC50
row,SMILES,AC50
1,"O=C(c1cncs1)N1CCc2[nH]cnc2[C@H]1c1nc2cccc(F)c2s1 [Example 1233, (S)-(4-(7-fluorobenzo[d]thiazol-2-yl)-6,7-dihydro-1H-imidazo[4,5-c]pyridin-5(4H)-yl)(thiazol-5-yl)methanone]",500 to 1000 nM
2,"O=C(c1cncs1)N1CCc2[nH]cnc2[C@@H]1c1nc2cccc(F)c2s1 [Example 1234, (R)-(4-(7-fluorobenzo[d]thiazol-2-yl)-6,7-dihydro-1H-imidazo[4,5-c]pyridin-5(4H)-yl)(thiazol-5-yl)methanone]",1000 to 5000 nM
3,O=C(c1cnn2cc(Br)ccc12)N1CCc2[nH]cnc2[C@H]1c1nc2c(F)cccc2s1 [Example 1235],500 to 1000 nM
4,"O=C(c1cnn2cc(Br)ccc12)N1CCc2[nH]cnc2[C@@H]1c1nc2c(F)cccc2s1 [Example 1236, (R)-(6-bromopyrazolo[1,5-a]pyridin-3-yl)(4-(4-fluorobenzo[d]thiazol-2-yl)-6,7-dihydro-1H-imidazo[4,5-c]pyridin-5(4H)-yl)methanone]",1000 to 5000 nM
5,O=C(c1cnn2cc(Cl)ccc12)N1CCc2[nH]cnc2[C@H]1c1nc2c(F)cccc2s1 [Example 1237],500 to 1000 nM
6,"O=C(c1cnn2cc(Cl)ccc12)N1CCc2[nH]cnc2[C@@H]1c1nc2c(F)cccc2s1 [Example 1238, (R)-(6-chloropyrazolo[1,5-a]pyridin-3-yl)(4-(4-fluorobenzo[d]thiazol-2-yl)-6,7-dihydro-1H-imidazo[4,5-c]pyridin-5(4H)-yl)methanone]",1000 to 5000 nM
7,O=C(c1cnn2c(Br)cccc12)N1CCc2[nH]cnc2[C@H]1c1nc2c(F)cccc2s1 [Example 1239],< 500 nM
8,"O=C(c1cnn2c(Br)cccc12)N1CCc2[nH]cnc2[C@@H]1c1nc2c(F)cccc2s1 [Example 1240, (R)-(7-bromopyrazolo[1,5-a]pyridin-3-yl)(4-(4-fluorobenzo[d]thiazol-2-yl)-6,7-dihydro-1H-imidazo[4,5-c]pyridin-5(4H)-yl)methanone]",1000 to 5000 nM
9,"O=C(c1cnn2ccccc12)N1CCc2[nH]cnc2[C@H]1c1nc2c(Br)cccc2s1 [Example 1241, (S)-(4-(4-bromobenzo[d]thiazol-2-yl)-6,7-dihydro-1H-imidazo[4,5-c]pyridine-5(4H)-yl)(pyrazolo [1,5-a]pyridin-3-yl)methanone]",500 to 1000 nM
10,"O=C(c1cnn2ccccc12)N1CCc2[nH]cnc2[C@@H]1c1nc2c(Br)cccc2s1 [Example 1242, (R)-(4-(4-bromobenzo[d]thiazol-2-yl)-6,7-dihydro-1H-imidazo[4,5-c]pyridine-5(4H)-yl)(pyrazolo [1,5-a]pyridin-3-yl) methanone]",> 5000 nM
11,"O=C(c1cnco1)N1CCc2[nH]cnc2[C@H]1c1nc2cccc(F)c2s1 [Example 1247, (S)-(4-(7-fluorobenzo[d]thiazol-2-yl)-6,7-dihydro-1H-imidazo[4,5-c]pyridin-5(4H)-yl)(oxazol-5-yl)methanone]",1000 to 5000 nM
12,"O=C(c1cnco1)N1CCc2[nH]cnc2[C@@H]1c1nc2cccc(F)c2s1 [Example 1248, (R)-(4-(7-fluorobenzo[d]thiazol-2-yl)-6,7-dihydro-1H-imidazo[4,5-c]pyridin-5(4H)-yl)(oxazol-5-yl)methanone]",1000 to 5000 nM
13,"N#Cc1ccn2ncc(C(=O)N3CCc4[nH]cnc4[C@H]3c3nc4c(F)cccc4s3)c2c1 [Example 1249, (S)-3-(4-(4-fluorobenzo[d]thiazol-2-yl)-4,5,6,7-tetrahydro-1H-imidazo[4,5-c]pyridine-5-carbonyl)pyrazolo[1,5-a]pyridine-5-carbonitrile]",500 to 1000 nM
14,"N#Cc1ccn2ncc(C(=O)N3CCc4[nH]cnc4[C@@H]3c3nc4c(F)cccc4s3)c2c1 [Example 1250, (R)-3-(4-(4-fluorobenzo[d]thiazol-2-yl)-4,5,6,7-tetrahydro-1H-imidazo[4,5-c]pyridine-5-carbonyl)pyrazolo[1,5-a]pyridine-5-carbonitrile]",1000 to 5000 nM
15,"Cc1nnc(C(=O)N2CCc3[nH]cnc3[C@@H]2c2nc3c(F)cccc3s2)s1 [Example 1251, (R)-(4-(4-fluorobenzo[d]thiazol-2-yl)-6,7-dihydro-1H-imidazo[4,5-c]pyridin-5(4H)-yl)(5-methyl-1,3,4-thiadiazol-2-yl)methanone]",> 5000 nM
16,"Cc1nnc(C(=O)N2CCc3[nH]cnc3[C@H]2c2nc3c(F)cccc3s2)s1 [Example 1252, (S)-(4-(4-fluorobenzo[d]thiazol-2-yl)-6,7-dihydro-1H-imidazo[4,5-c]pyridin-5(4H)-yl)(5-methyl-1,3,4-thiadiazol-2-yl)methanone]",1000 to 5000 nM
17,O=C(c1ncc(Cl)s1)N1CCc2[nH]cnc2[C@H]1c1nc2cc(F)ccc2s1 [Example 1261],1000 to 5000 nM
18,"O=C(c1ncc(Cl)s1)N1CCc2[nH]cnc2[C@@H]1c1nc2cc(F)ccc2s1 [Example 1262, (R)-(5-chlorothiazol-2-yl)(4-(5-fluorobenzo[d]thiazol-2-yl)-6,7-dihydro-1H-imidazo[4,5-c]pyridin-5(4H)-yl)methanone]",1000 to 5000 nM
19,O=C(c1nc(Cl)cs1)N1CCc2[nH]cnc2[C@H]1c1nc2cccc(F)c2s1 [Example 1263],1000 to 5000 nM
20,"O=C(c1nc(Cl)cs1)N1CCc2[nH]cnc2[C@@H]1c1nc2cccc(F)c2s1 [Example 1264, (R)-(4-chlorothiazol-2-yl)(4-(7-fluorobenzo[d]thiazol-2-yl)-6,7-dihydro-1H-imidazo[4,5-c]pyridin-5(4H)-yl)methanone]",1000 to 5000 nM
21,"O=C(c1nncs1)N1CCc2[nH]cnc2[C@@H]1c1nc2cccc(F)c2s1 [Example 1265, (R)-(4-(7-fluorobenzo[d]thiazol-2-yl)-6,7-dihydro-1H-imidazo[4,5-c]pyridin-5(4H)-yl)(1,3,4-thiadiazol-2-yl)methanone]",1000 to 5000 nM
22,"O=C(c1nncs1)N1CCc2[nH]cnc2[C@H]1c1nc2cccc(F)c2s1 [Example 1266, (S)-(4-(7-fluorobenzo[d]thiazol-2-yl)-6,7-dihydro-1H-imidazo[4,5-c]pyridin-5(4H)-yl)(1,3,4-thiadiazol-2-yl)methanone]",< 500 nM

# More lines, now with the values ahead:
row,AC50,SMILES
1,500 to 1000 nM,C=Cc1ccc2c(C(=O)N3CCc4[nH]cnc4[C@H]3c3nc4ccccc4s3)cnn2c1 [Example 1231]
2,1000 to 5000 nM,"C=Cc1ccc2c(C(=O)N3CCc4[nH]cnc4[C@@H]3c3nc4ccccc4s3)cnn2c1 [Example 1232, (R)-(4-(benzo[d]thiazol-2-yl)-6,7-dihydro-1H-imidazo[4,5-c]pyridin-5(4H)-yl)(6-vinylpyrazolo[1,5-a]pyridin-3-yl)methanone]"
3,1000 to 5000 nM,CCc1ccc2c(C(=O)N3CCc4[nH]cnc4[C@H]3c3nc4ccccc4s3)cnn2c1 [Example 1243]
4,> 5000 nM,"CCc1ccc2c(C(=O)N3CCc4[nH]cnc4[C@@H]3c3nc4ccccc4s3)cnn2c1 [Example 1244, (R)-(4-(benzo[d]thiazol-2-yl)-6,7-dihydro-1H-imidazo[4,5-c]pyridin-5(4H)-yl)(6-ethylpyrazolo[1,5-a]pyridin-3-yl)methanone]"
5,< 500 nM,O=C(CC1CC(F)C1)N1CCc2[nH]cnc2[C@H]1c1nc2ccccc2s1 (stereo partly drawn) [Example 1245]
6,1000 to 5000 nM,"O=C(CC1CC(F)C1)N1CCc2[nH]cnc2[C@@H]1c1nc2ccccc2s1 (stereo partly drawn) [Example 1246, (R)-1-(4-(benzo[d]thiazol-2-yl)-6,7-dihydro-1H-imidazo[4,5-c]pyridin-5(4H)-yl)-2-(3-fluorocyclobutyl)ethanone]"
7,500 to 1000 nM,O=C(N1CCc2[nH]cnc2[C@H]1c1nc2ccccc2s1)C(F)(F)C1CC1 [Example 1253]
8,> 5000 nM,"O=C(N1CCc2[nH]cnc2[C@@H]1c1nc2ccccc2s1)C(F)(F)C1CC1 [Example 1254, (R)-1-(4-(benzo[d]thiazol-2-yl)-6,7-dihydro-1H-imidazo[4,5-c]pyridin-5(4H)-yl)-2-cyclopropyl-2,2-difluoroethanone]"
9,500 to 1000 nM,O=C(N1CCc2[nH]cnc2[C@H]1c1nc2ccccc2s1)C1(CF)CC1 [Example 1255]
10,> 5000 nM,"O=C(N1CCc2[nH]cnc2[C@@H]1c1nc2ccccc2s1)C1(CF)CC1 [Example 1256, (R)-(4-(benzo[d]thiazol-2-yl)-6,7-dihydro-1H-imidazo[4,5-c]pyridin-5(4H)-yl)(1-(fluoromethyl)cyclopropyl)methanone]"
11,< 500 nM,"O=C(CC1CC1)N1CCc2[nH]cnc2[C@H]1c1nc2cccc(F)c2s1 [Example 1257, (S)-2-cyclopropyl-1-(4-(7-fluorobenzo[d]thiazol-2-yl)-6,7-dihydro-1H-imidazo[4,5-c]pyridin-5(4H)-yl)ethanone]"
12,500 to 1000 nM,"O=C(CC1CC1)N1CCc2[nH]cnc2[C@@H]1c1nc2cccc(F)c2s1 [Example 1258, (R)-2-cyclopropyl-1-(4-(7-fluorobenzo[d]thiazol-2-yl)-6,7-dihydro-1H-imidazo[4,5-c]pyridin-5(4H)-yl)ethanone]"
13,500 to 1000 nM,"O=C(C1CC1)N1CCc2[nH]cnc2[C@H]1c1nc2cccc(F)c2s1 [Example 1259, (S)-cyclopropyl(4-(7-fluorobenzo[d]thiazol-2-yl)-6,7-dihydro-1H-imidazo[4,5-c]pyridin-5(4H)-yl)methanone]"
14,> 5000 nM,"O=C(C1CC1)N1CCc2[nH]cnc2[C@@H]1c1nc2cccc(F)c2s1 [Example 1260, (R)-cyclopropyl(4-(7-fluorobenzo[d]thiazol-2-yl)-6,7-dihydro-1H-imidazo[4,5-c]pyridin-5(4H)-yl)methanone]"
